Assay results as given in ChEMBL document CHEMBL1255302, “Genetic structures at the origin of acquisition of the beta-lactamase bla KPC gene” (2008).
≈ marks a conversion by molar mass, not a printed value.

Experiments:
Assay type in all cases: functional
Escherichia coli [1] = test: Antibacterial activity against Escherichia coli harboring pBC2303 expressing blaKPC gene plasmid by Etest method
Escherichia coli [2] = test: Antibacterial activity against Escherichia coli harboring pBC633 plasmid expressing blaKPC gene by Etest method
Klebsiella pneumoniae [3] = test: Antibacterial activity against Klebsiella pneumoniae KN2303 by Etest method
Escherichia coli [4] = test: Antibacterial activity against Escherichia coli harboring pNGR plasmid expressing blaKPC gene by Etest method
Pseudomonas aeruginosa [5] = test: Antibacterial activity against Pseudomonas aeruginosa 2404 plasmid by Etest method
Escherichia coli [6] = test: Antibacterial activity against Escherichia coli DH10B expressing blaKPC gene by Etest method
Klebsiella pneumoniae [7] = test: Antibacterial activity against Klebsiella pneumoniae YC by Etest method
Escherichia coli [8] = test: Antibacterial activity against Escherichia coli harboring pNYC plasmid expressing blaKPC gene by Etest method
Pseudomonas aeruginosa [9] = test: Antibacterial activity against Pseudomonas aeruginosa KG2505 harboring pCOL plasmid by Etest method
Escherichia coli [10] = test: Antibacterial activity against Escherichia coli harboring pRYC plasmid expressing blaKPC gene by Etest method
Pseudomonas aeruginosa [11] = test: Antibacterial activity against Pseudomonas aeruginosa KG2505 by Etest method
Escherichia coli [12] = test: Antibacterial activity against Escherichia coli harboring pCOL plasmid expressing blaKPC gene by Etest method
Klebsiella pneumoniae [13] = test: Antibacterial activity against Klebsiella pneumoniae GR by Etest method
Klebsiella pneumoniae [14] = test: Antibacterial activity against Klebsiella pneumoniae 633 by Etest method
Escherichia coli [15] = test: Antibacterial activity against Escherichia coli DH10B expressing blaKPC gene by Etest method in presence of beta-lactamase inhibitor clavulanic acid
Escherichia coli [16] = test: Antibacterial activity against Escherichia coli harboring pRYC plasmid expressing blaKPC gene by Etest method in presence of beta-lactamase inhibitor clavulanic acid
Pseudomonas aeruginosa [17] = test: Antibacterial activity against Pseudomonas aeruginosa 2404 plasmid by Etest method in presence of beta-lactamase inhibitor clavulanic acid
Klebsiella pneumoniae [18] = test: Antibacterial activity against Klebsiella pneumoniae KN2303 by Etest method in presence of beta-lactamase inhibitor clavulanic acid
Klebsiella pneumoniae [19] = test: Antibacterial activity against Klebsiella pneumoniae GR by Etest method in presence of beta-lactamase inhibitor clavulanic acid
Escherichia coli [20] = test: Antibacterial activity against Escherichia coli harboring pCOL plasmid expressing blaKPC gene by Etest method in presence of beta-lactamase inhibitor clavulanic acid
Escherichia coli [21] = test: Antibacterial activity against Escherichia coli harboring pBC633 plasmid expressing blaKPC gene by Etest method in presence of beta-lactamase inhibitor clavulanic acid
Pseudomonas aeruginosa [22] = test: Antibacterial activity against Pseudomonas aeruginosa KG2505 harboring pCOL plasmid by Etest method in presence of beta-lactamase inhibitor clavulanic acid
Escherichia coli [23] = test: Antibacterial activity against Escherichia coli harboring pNYC plasmid expressing blaKPC gene by Etest method in presence of beta-lactamase inhibitor clavulanic acid
Pseudomonas aeruginosa [24] = test: Antibacterial activity against Pseudomonas aeruginosa KG2505 by Etest method in presence of beta-lactamase inhibitor clavulanic acid
Klebsiella pneumoniae [25] = test: Antibacterial activity against Klebsiella pneumoniae 633 by Etest method in presence of beta-lactamase inhibitor clavulanic acid
Klebsiella pneumoniae [26] = test: Antibacterial activity against Klebsiella pneumoniae YC by Etest method in presence of beta-lactamase inhibitor clavulanic acid
Escherichia coli [27] = test: Antibacterial activity against Escherichia coli harboring pNGR plasmid expressing blaKPC gene by Etest method in presence of beta-lactamase inhibitor clavulanic acid
Escherichia coli [28] = test: Antibacterial activity against Escherichia coli harboring pBC2303 expressing blaKPC gene plasmid by Etest method in presence of beta-lactamase inhibitor clavulanic acid

SMILES	MIC (Escherichia coli [1])	MIC (Escherichia coli [2])	MIC (Klebsiella pneumoniae [3])	MIC (Escherichia coli [4])	MIC (Pseudomonas aeruginosa [5])	MIC (Escherichia coli [6])	MIC (Klebsiella pneumoniae [7])	MIC (Escherichia coli [8])	MIC (Pseudomonas aeruginosa [9])	MIC (Escherichia coli [10])	MIC (Pseudomonas aeruginosa [11])	MIC (Escherichia coli [12])	MIC (Klebsiella pneumoniae [13])	MIC (Klebsiella pneumoniae [14])	MIC (Escherichia coli [15])	MIC (Escherichia coli [16])	MIC (Pseudomonas aeruginosa [17])	MIC (Klebsiella pneumoniae [18])	MIC (Klebsiella pneumoniae [19])	MIC (Escherichia coli [20])	also measured
CC(=O)OCC1=C(C(=O)O)N2C(=O)[C@@H](NC(=O)Cc3cccs3)[C@H]2SC1 [CEPHALOTHIN]	> 256 µg/mL	> 256 µg/mL	> 256 µg/mL	> 256 µg/mL	> 256 µg/mL	256 µg/mL (≈ 646 µM)	> 256 µg/mL	> 256 µg/mL	> 256 µg/mL	> 256 µg/mL	2 µg/mL (≈ 5.04 µM)	2 µg/mL (≈ 5.04 µM)	> 256 µg/mL	> 256 µg/mL	–	–	–	–	–	–	–
CO[C@@]1(NC(=O)Cc2cccs2)C(=O)N2C(C(=O)O)=C(COC(N)=O)CS[C@@H]21 [CEFOXITIN]	8 µg/mL (≈ 18.7 µM)	> 32 µg/mL	> 32 µg/mL	4 µg/mL (≈ 9.36 µM)	> 64 µg/mL	2 µg/mL (≈ 4.68 µM)	> 32 µg/mL	2 µg/mL (≈ 4.68 µM)	> 32 µg/mL	> 32 µg/mL	0.25 µg/mL (≈ 0.585 µM)	2 µg/mL (≈ 4.68 µM)	> 32 µg/mL	> 32 µg/mL	–	–	–	–	–	–	–
C[C@@H](O)[C@H]1C(=O)N2C(C(=O)O)=C(SCCNC=N)C[C@H]12 [IMIPENEM ANHYDROUS]	1 µg/mL (≈ 3.34 µM)	6 µg/mL (≈ 20 µM)	> 32 µg/mL	1.5 µg/mL (≈ 5.01 µM)	> 32 µg/mL	1.5 µg/mL (≈ 5.01 µM)	4 µg/mL (≈ 13.4 µM)	8 µg/mL (≈ 26.7 µM)	> 32 µg/mL	12 µg/mL (≈ 40.1 µM)	0.19 µg/mL (≈ 0.635 µM)	0.19 µg/mL (≈ 0.635 µM)	12 µg/mL (≈ 40.1 µM)	> 32 µg/mL	0.38 µg/mL	3 µg/mL	> 32 µg/mL	> 32 µg/mL	0.75 µg/mL	0.1 µg/mL	MIC (Escherichia coli [21]): 0.75 µg/mL; MIC (Pseudomonas aeruginosa [22]): 2 µg/mL; MIC (Escherichia coli [23]): 2 µg/mL; MIC (Pseudomonas aeruginosa [24]): 0.19 µg/mL; MIC (Klebsiella pneumoniae [25]): 0.75 µg/mL; MIC (Klebsiella pneumoniae [26]): 2 µg/mL
CC1(C)S[C@@H]2[C@H](NC(=O)[C@H](N)c3ccc(O)cc3)C(=O)N2[C@H]1C(=O)O [AMOXICILLIN]	> 256 µg/mL	> 256 µg/mL	> 256 µg/mL	> 256 µg/mL	> 256 µg/mL	> 256 µg/mL	> 256 µg/mL	> 256 µg/mL	> 256 µg/mL	> 256 µg/mL	0.25 µg/mL (≈ 0.684 µM)	2 µg/mL (≈ 5.47 µM)	> 256 µg/mL	> 256 µg/mL	24 µg/mL	64 µg/mL	> 256 µg/mL	> 256 µg/mL	48 µg/mL	2 µg/mL	MIC (Escherichia coli [21]): 32 µg/mL; MIC (Pseudomonas aeruginosa [22]): > 256 µg/mL; MIC (Escherichia coli [23]): 32 µg/mL; MIC (Pseudomonas aeruginosa [24]): 0.25 µg/mL; MIC (Escherichia coli [27]): 24 µg/mL; MIC (Escherichia coli [28]): 24 µg/mL; MIC (Klebsiella pneumoniae [25]): 32 µg/mL; MIC (Klebsiella pneumoniae [26]): 32 µg/mL
CO/N=C(\C(=O)N[C@@H]1C(=O)N2C(C(=O)O)=C(COC(C)=O)CS[C@H]12)c1csc(N)n1 [CEFOTAXIME]	16 µg/mL (≈ 35.1 µM)	32 µg/mL (≈ 70.3 µM)	> 32 µg/mL	4 µg/mL (≈ 8.78 µM)	> 32 µg/mL	3 µg/mL (≈ 6.59 µM)	> 32 µg/mL	4 µg/mL (≈ 8.78 µM)	> 32 µg/mL	> 32 µg/mL	0.25 µg/mL (≈ 0.549 µM)	0.05 µg/mL (≈ 0.11 µM)	> 32 µg/mL	> 32 µg/mL	0.25 µg/mL	> 32 µg/mL	> 32 µg/mL	> 32 µg/mL	32 µg/mL	0.01 µg/mL	MIC (Escherichia coli [21]): 3 µg/mL; MIC (Pseudomonas aeruginosa [22]): > 32 µg/mL; MIC (Escherichia coli [23]): 2 µg/mL; MIC (Pseudomonas aeruginosa [24]): 0.19 µg/mL; MIC (Escherichia coli [27]): 0.38 µg/mL; MIC (Escherichia coli [28]): 0.38 µg/mL; MIC (Klebsiella pneumoniae [25]): > 32 µg/mL; MIC (Klebsiella pneumoniae [26]): 16 µg/mL
CO/N=C(\C(=O)N[C@@H]1C(=O)N2C(C(=O)[O-])=C(C[N+]3(C)CCCC3)CS[C@H]12)c1csc(N)n1	3 µg/mL (≈ 6.24 µM)	4 µg/mL (≈ 8.32 µM)	> 32 µg/mL	1.5 µg/mL (≈ 3.12 µM)	> 32 µg/mL	1 µg/mL (≈ 2.08 µM)	–	1 µg/mL (≈ 2.08 µM)	> 32 µg/mL	> 32 µg/mL	0.5 µg/mL (≈ 1.04 µM)	0.02 µg/mL (≈ 0.0416 µM)	> 32 µg/mL	> 32 µg/mL	–	–	–	–	–	–	–
